The source of these data is patent US9683018B2, “Disulfide cyclic polypeptides for the treatment of heart failure” (priority 2013, dated 2017).

One series can be described thus: in vitro. The settings on record: rat, plasma.
The nature of series [1]: Plasma stability assay (LC-MS). Format: in vitro ADME. The note with it: male, Sprague-Dawley, heparinized rat plasma, 37° C., Table 3, read-out: Plasma stability t½. As to the method:
Working solution: 1 mg/mL test article is prepared in Milli-Q water
Extraction solution: Methanol:Acetonitrile:Water (1:1:1) with 0.1% Formic Acid and 400 ng/mL Glyburide.
Plasma: Male Sprague-Dawley rat plasma (with sodium heparin), purchased from Bioreclamation LLC (Liverpool, N.Y.).
Test article was prepared in one of the following biological matrices: heparinized rat plasma, heparinized rat whole blood or lung homogenate. The plasma and whole blood sample was prepared at 5000 ng/mL by adding 5 uL of 1 mg/mL Working solution to 995 uL of rat plasma or whole blood. Lung homogenate samples were prepared by diluting lung homogenate to 1 mg/ml protein concentration with phosphate buffered saline (PBS), followed by addition of 5 uL Working solution to 995 uL diluted lung homogenate. The samples were incubated at 37° C. with gentle shaking (65˜75 rpm) in a water bath incubator. At times 0 min, 5 min, 15 min, 30 min, 60 min, 120 and 240 min, 25 uL aliquots of incubation samples were transferred to 96-well plate and immediately protein precipitated using 150 uL of Extraction solution. After completion of incubation experiment, the sample plate was centrifuged at 4000 rpm at 4° C. for 10 minutes. Afterwards, a pipetting device (Tecan Temo) was used to transfer the supernatants to another plate and add 50 uL of water to all samples. The plate was vortexed prior to LC-MS analysis.
LC-MS Analysis of stability samples
HPLC: Agilent 1290 HPLC with autosampler
Column: MAC-MOD ACE C18, 3 μm, 30 mm×2.1 mm i.d.
Mobile phase A: 0.1% Formic acid in acetonitrile
Mobile phase B: 0.1% Formic acid in water

A further series addresses T1, hAPJ (Homo sapiens, UniProt P35414).
T1 sequence (P35414 1-380): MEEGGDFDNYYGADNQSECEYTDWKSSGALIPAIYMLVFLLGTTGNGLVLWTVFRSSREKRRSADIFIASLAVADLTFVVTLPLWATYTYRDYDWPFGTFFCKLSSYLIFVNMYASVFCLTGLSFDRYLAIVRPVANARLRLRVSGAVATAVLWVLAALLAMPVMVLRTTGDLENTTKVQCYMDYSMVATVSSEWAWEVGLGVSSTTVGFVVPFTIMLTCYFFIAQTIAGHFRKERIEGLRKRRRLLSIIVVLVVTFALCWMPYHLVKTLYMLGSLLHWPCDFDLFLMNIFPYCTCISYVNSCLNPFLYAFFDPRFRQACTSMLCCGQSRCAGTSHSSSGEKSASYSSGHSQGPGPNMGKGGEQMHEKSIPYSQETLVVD
Nature of the series: hAPJ Calcium Flux Assay. Format: cell-based. The settings on record: Chem-5 APJ stable cells, FLIPR calcium flux; read-out: hAPJ Ca2+ Flux EC50. The method, then:
Chem-5 APJ stable cells (Millipore # HTS068C) were plated in 384-well format with 10,000 cells/well in 25 ul growth media, then grown 24 hours in a 37° C. tissue culture incubator. One hour before the assay, 25 ul/well FLIPR Calcium 4 dye (Molecular Devices R8142) with 2.5 mM probenecid was added, and cells were incubated one hour in a 37° C. tissue culture incubator. Peptides were solubilized in HBSS, HEPES & 0.1% BSA buffer, and serially-diluted 10-fold, from 50 uM to 5 pM, in triplicate. FLIPR Tetra was used to add peptide to the cells with dye (1:5, for final peptide concentrations ranging from 10 uM to 1 pM). FLIPR dye inside the cells emitted fluorescence after binding to calcium, while fluorescence from outside the cells was masked. Fluorescence was measured using 470-495 excitation and 515-575 emission wavelengths on the FLIPR Tetra. Readings were done for 3 minutes total, beginning 10 seconds before the peptide addition. Maximum-minimum values were calculated and plotted for each peptide concentration, and GraphPad prism software was used to calculate EC50 values at the curve inflection points, for calcium flux stimulation by peptides.

Where [2] appears, read: Surrogate Activity based Plasma stability t½.
The mark [3] stands for this setting: Surrogate activity-based Plasma stability t½.

Bridge positions count the residues as written; N and C are the ends. Square brackets hold non-standard residues; d marks the D form. Peptide text beside a SMILES is read from it. * marks the point of attachment. pGlu = O=C1CC[C@@H](C(=O)O)N1; NHPhenethyl = c1ccc(CCN*)cc1; Nle = CCCC[C@H](N)C(=O)O; Aib = CC(C)(N)C(=O)O

Procedure for in vitro: The calcium flux protocol described above was followed, with the following changes. The peptides were also incubated with 5% rat plasma (Bioreclamation # [sequence]-M, Na Heparin-treated). Readings were taken at time points t0 and t24 hrs, after incubation in a 37° C. tissue culture incubator. Peptide plasma half-life in minutes was estimated by calculating the following:
2) Calculate slope of value above and

By EC50 is commonly meant the concentration at which the effect is half-maximal. Consider `CCCC[C@@H]1NC(=O)[C@@H]2CCCN2C(=O)CNC(=O)[C@H](CCCCN)NC(=O)[C@H](Cc2c[nH]cn2)NC(=O)[C@H](CO)NC(=O)[C@@H](NC(=O)[C@H](CCCNC(=N)N)NC(=O)[C@@H]2CCCN2C(=O)[C@H](CCCNC(=N)N)NC(=O)[C@@H]2CCC(=O)N2)CSSC[C@@H](C(=O)N[C@@H](Cc2ccccc2)C(=O)O)NC1=O` [Example 1, pE-R-P-R-C*-S-H-K-G-P-Nle-C*-F-OH] ([pGlu]RPRCSHKGP[Nle]CF-OH; disulfide 5-12), for which the half-life in the series “in vitro” (setting [2]) and in the series “in vitro” (setting [3]) was 2.12 h in each case. In addition, the half-life at 5000 ng/mL in series [1] was found to be 2.82 h. For the same compound, the EC50 on hAPJ was determined as 0.74 nM.

For the compound `CCCC[C@@H]1NC(=O)[C@@H]2CCCN2C(=O)CNC(=O)[C@H](CCCCN)NC(=O)[C@@H](NC(=O)[C@H](CO)NC(=O)[C@H](CC(C)C)NC(=O)[C@H](CCCNC(=N)N)NC(=O)[C@@H]2CCCN2C(=O)[C@H](CCCNC(=N)N)NC(=O)[C@@H]2CCC(=O)N2)CSSC[C@@H](C(=O)N[C@@H](Cc2ccccc2)C(=O)O)NC1=O` [Example 3, pE-R-P-R-L-S-C*-K-G-P-Nle-C*-F-OH] ([pGlu]RPRLSCKGP[Nle]CF-OH; disulfide 7-12), the half-life in “in vitro” (setting [2]) and in the series “in vitro” (setting [3]) was 0.433 h throughout. Moreover, the half-life at 5000 ng/mL in series [1] is 1.35 h. For the same compound, the EC50 on hAPJ was 128 nM.

`CCCC[C@@H]1NC(=O)[C@@H]2CCCN2C(=O)[C@@H](NC(=O)[C@H](CCCCN)NC(=O)[C@H](Cc2c[nH]cn2)NC(=O)[C@H](CO)NC(=O)[C@H](CC(C)C)NC(=O)[C@H](CCCNC(=N)N)NC(=O)[C@@H]2CCCN2C(=O)[C@H](CCCNC(=N)N)NC(=O)[C@@H]2CCC(=O)N2)CSSC[C@@H](C(=O)N[C@@H](Cc2ccccc2)C(=O)O)NC1=O` [Example 14, pE-R-P-R-L-S-H-K-C*-P-Nle-C*-F-OH] ([pGlu]RPRLSHKCP[Nle]CF-OH; disulfide 9-12): the half-life in “in vitro” (setting [2]) and in “in vitro” (setting [3]) was 0.483 h each time. Besides, the half-life at 5000 ng/mL in series [1] was determined as 1.08 h. The EC50 on hAPJ amounted to 0.81 nM.

For the compound `CCCC[C@@H]1NC(=O)[C@@H]2CCCN2C(=O)[C@@H](NC(=O)[C@H](CCCCN)NC(=O)C(C)(C)NC(=O)[C@H](CO)NC(=O)[C@H](CC(C)C)NC(=O)[C@H](CCCNC(=N)N)NC(=O)[C@@H]2CCCN2C(=O)[C@H](CCCNC(=N)N)NC(=O)[C@@H]2CCC(=O)N2)CSSC[C@@H](C(=O)NCCc2ccccc2)NC1=O` [Example 15, pE-R-P-R-L-S-Aib-K-C*-P-Nle-C*-NH(Phenethyl)] ([pGlu]RPRLS[Aib]KCP[Nle]C-NHPhenethyl; disulfide 9-12), the half-life in the series “in vitro” (setting [2]) and in the series “in vitro” (setting [3]) was 0.683 h in each case. Besides, in series [1], the half-life at 5000 ng/mL worked out at 0.7 h. For the same compound, the EC50 on hAPJ stood at 4 nM.

For `CCCC[C@@H]1NC(=O)[C@@H]2CCCN2C(=O)[C@@H](NC(=O)[C@H](CCCCN)NC(=O)[C@H](Cc2c[nH]cn2)NC(=O)[C@@H](C)NC(=O)[C@H](CC(C)C)NC(=O)[C@H](CCCNC(=N)N)NC(=O)[C@@H]2CCCN2C(=O)[C@H](CCCNC(=N)N)NC(=O)[C@@H]2CCC(=O)N2)CSSC[C@@H](C(=O)N[C@H](Cc2ccccc2)C(=O)O)NC1=O` [Example 17, pE-R-P-R-L-a-H-K-C*-P-Nle-C*-f-OH] ([pGlu]RPRL[dA]HKCP[Nle]C[dF]-OH; disulfide 9-12), the half-life in “in vitro” (setting [2]) and in “in vitro” (setting [3]) was 15.1 h each time. The half-life at 5000 ng/mL in series [1] is 8.42 h. Further, the EC50 on hAPJ stood at 1.9 nM.

As to `CCCC[C@@H]1NC(=O)[C@@H]2CCCN2C(=O)[C@@H](NC(=O)[C@H](CCCCN)NC(=O)[C@H](Cc2c[nH]cn2)NC(=O)[C@@H](CO)NC(=O)[C@H](CC(C)C)NC(=O)[C@H](CCCNC(=N)N)NC(=O)[C@@H]2CCCN2C(=O)[C@H](CCCNC(=N)N)NC(=O)[C@@H]2CCC(=O)N2)CSSC[C@@H](C(=O)N[C@H](Cc2ccccc2)C(=O)O)NC1=O` [Example 21, pE-R-P-R-L-s-H-K-C*-P-Nle-C*-f-OH] ([pGlu]RPRL[dS]HKCP[Nle]C[dF]-OH; disulfide 9-12), the half-life in the series “in vitro” (setting [3]) was 8.88 h. For the same compound, the EC50 at hAPJ worked out at 9.7 nM.
